From patent US11413354B2, “N-acetylgalactosamino dendron-clearing agent for dota-pretargeted radioimmunotherapy” (priority 2018, dated 2022)

Tests used:
[1] = test system: GPA33-expressing SW1222 xenografts; test: Absorbed dose estimates for PRIT+[^177Lu]LuDOTA-Bn including dendron-CA CCA-16-DOTA-Y^3+; format: in vivo, nude mice; conditions: with dendron-CA; bone marrow as dose-limiting organ
Description: Absorbed dose estimates for PRIT+[^177Lu]LuDOTA-Bn including dendron-CA CCA-16-DOTA-Y^3+: In order to calculate absorbed doses for PRIT+[[…]]LuDOTA-Bn including dendron-CA (the clearing agent of the present technology), groups of nude mice bearing GPA33-expressing SW1222 xenografts (n=5/group) were injected i.v. with the BsAb huA33-C825 (250 μg; 1.19 nmol) 28 h prior and i.v. with dendron-clearing agent CCA-16-DOTA-Y^3+ (25 μg; 2.76 nmol) 4 h prior to administration of [^177Lu]LuDOTA-Bn (20 pmol, 3.7 MBq [100 μCi]). These mice were sacrificed at 1, 4, 24, or 48 h p.i. of [^177Lu]LuDOTA-Bn for biodistribution assay. For each tissue, the non-decay-corrected time-activity concentration data were fitted using Excel to a 1-component, 2-component, or more complex exponential function as appropriate, and analytically integrated to yield the cumulated activity concentration per unit administered activity (MBq-h/g per MBq). The ^177Lu equilibrium dose constant for non-penetrating radiations (8.49 g-cGy/MBq-h) was used to estimate the tumor-to-tumor and select organ-to-organ self-absorbed doses, assuming complete local absorption of the ^177Lu beta rays only, and ignoring the gamma ray and non-self dose contributions.

[2] = test system: SW1222 xenografts (anti-GPA33 PRIT); test: Optimized PRIT+[^177Lu]LuDOTA-Bn including dextran-CA (Cheal et al. 2016): dosimetry and therapy; format: in vivo, mice; conditions: with dextran-CA; bone marrow as dose-limiting organ
From the text: See Cheal et al., Eur J Nucl Med Mol Imaging 43: 925 (2016). […] Cheal et al., Eur J Nucl Med Mol Imaging 43: 925 (2016).
Based on human normal-tissue radiation dose tolerance estimates derived from clinical observations (Marks, et al., Int J Radiat Oncol Biol Phys. 76:S10-9 (2010)) the maximum tolerated doses (MTDs) are 250 cGy for bone marrow, 1,500 cGy for lung, 3,000 cGy for liver, and 2,000 cGy for kidney. […] At this activity, the estimated absorbed dose delivered to tumor would be 18,292 cGy (183 Gy), with 250 cGy to blood (marrow) and 1,473 cGy to kidney.

[3] = test system: SW1222 xenografts (anti-GPA33 PRIT); conditions: with dextran-CA, cited from earlier work
[4] = test system: SW1222 tumor (same animal model); conditions: 24 h p.i.; 1.85-8.8 MBq, 10-50 pmol; cited from earlier work

^177Lu-aminobenzylDOTA [[^177Lu]LuDOTA-Bn]
maximum tolerated pretargeted activity [1]: 21 MBq | maximum tolerated pretargeted activity [2]: 278 MBq | CR frequency ([3]; 111.0 MBq delivered in a fractionated dose strategy): 100% | survival beyond 140 days ([3]; 111.0 MBq fractionated): two of nine mice | treatment-related toxicity ([3]; effective treatment): no major treatment-related toxicities observed | mean tumor uptake [4]: ~8 % ID/g
